# From paper PMC9250534, “Synthesis and direct assay of large macrocycle diversities by combinatorial late-stage modification at picomole scale” (Nature Communications, 2022)
# Biological target: MDM2 (Homo sapiens, UniProt Q00987)
# Assay: MDM2 binding screen of Libraries 3 and 4: displacement of fluorescent probe F-M8 at 750 nM macrocycle
# Settings: Panel b, Library 3: 63 scaffolds combinatorially acylated with 15 carboxylic acids at 30 picomole scale; displacement of fluorescent peptide probe; macrocycle 750 nM
# Outline: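 Cyclic peptide scaffolds were acylated in DMSO with carboxylic acids (20 equiv.), HBTU and DABCO for 6 h at room temperature. Reactions were quenched overnight in 100 mM Tris-Cl pH 7.4, 0.01% Tween20. The fluorescein conjugate was also competed with nutlin-3a.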
# MDM2, sequence (Q00987 whole entry): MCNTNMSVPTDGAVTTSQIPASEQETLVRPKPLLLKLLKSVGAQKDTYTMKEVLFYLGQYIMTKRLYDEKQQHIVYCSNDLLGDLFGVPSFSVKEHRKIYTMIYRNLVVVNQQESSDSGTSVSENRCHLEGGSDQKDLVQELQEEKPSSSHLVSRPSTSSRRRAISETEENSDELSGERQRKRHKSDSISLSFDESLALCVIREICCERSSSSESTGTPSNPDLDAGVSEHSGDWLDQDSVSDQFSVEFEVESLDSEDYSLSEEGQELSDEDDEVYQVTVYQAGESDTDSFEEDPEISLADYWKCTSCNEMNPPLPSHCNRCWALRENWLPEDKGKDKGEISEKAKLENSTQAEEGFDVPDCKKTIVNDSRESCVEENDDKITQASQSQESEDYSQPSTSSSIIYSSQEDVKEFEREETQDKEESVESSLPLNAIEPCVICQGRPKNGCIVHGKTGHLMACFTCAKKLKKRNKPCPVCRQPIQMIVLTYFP
row,fraction of fluorescent probe displaced,Structure (SMILES)
1,-0.002,O=C(/C=C/c1ccncc1)NC[C@@H]1NC(=O)C2(CC2)CNC(=O)CCSSCCNC(=O)[C@H](Cc2ccc3ccccc3c2)NC1=O [X-Amcp-Dap-2-Nal + Acid 106]
2,0.031,O=C1CCSSCCNC(=O)[C@H](Cc2ccc3ccccc3c2)NC(=O)[C@H](CNC(=O)c2ccc3ccccc3c2)NC(=O)C2(CC2)CN1 [X-Amcp-Dap-2-Nal + Acid 107]
3,0.008,O=C(/C=C/c1ccc(Cl)cc1)NC[C@@H]1NC(=O)C2(CC2)CNC(=O)CCSSCCNC(=O)[C@H](Cc2ccc3ccccc3c2)NC1=O [X-Amcp-Dap-2-Nal + Acid 108]
4,0.041,O=C(/C=C/c1ccc(OCc2ccccc2)cc1)NC[C@@H]1NC(=O)C2(CC2)CNC(=O)CCSSCCNC(=O)[C@H](Cc2ccc3ccccc3c2)NC1=O [X-Amcp-Dap-2-Nal + Acid 110]
5,0.00133,O=C1CCSSCCNC(=O)[C@H](Cc2ccc3ccccc3c2)NC(=O)[C@H](CNC(=O)c2cccc(Oc3ccccc3)c2)NC(=O)C2(CC2)CN1 [X-Amcp-Dap-2-Nal + Acid 111]
6,0.015,O=C(/C=C/c1ccc2ccccc2c1)NC[C@@H]1NC(=O)C2(CC2)CNC(=O)CCSSCCNC(=O)[C@H](Cc2ccc3ccccc3c2)NC1=O [X-Amcp-Dap-2-Nal + Acid 112]
7,0.00455,O=C1CCSSCCNC(=O)[C@H](Cc2c[nH]c3cc(Cl)ccc23)NC(=O)[C@H](CNC(=O)c2ccc3ccccc3c2)NC(=O)C2(CC2)CN1 [X-Amcp-Dap-Cl-Trp + Acid 107]
8,0.00133,O=C(/C=C/c1ccc(Cl)cc1)NC[C@@H]1NC(=O)C2(CC2)CNC(=O)CCSSCCNC(=O)[C@H](Cc2c[nH]c3cc(Cl)ccc23)NC1=O [X-Amcp-Dap-Cl-Trp + Acid 108]
9,0.008,O=C1CCSSCCNC(=O)[C@H](Cc2c[nH]c3cc(Cl)ccc23)NC(=O)[C@H](CNC(=O)c2cccc(Oc3ccccc3)c2)NC(=O)C2(CC2)CN1 [X-Amcp-Dap-Cl-Trp + Acid 111]
10,0.008,O=C(/C=C/c1ccc2ccccc2c1)NC[C@@H]1NC(=O)C2(CC2)CNC(=O)CCSSCCNC(=O)[C@H](Cc2c[nH]c3cc(Cl)ccc23)NC1=O [X-Amcp-Dap-Cl-Trp + Acid 112]
11,-0.012,O=C1CCSSCCNC(=O)[C@H](Cc2c[nH]c3cc(Cl)ccc23)NC(=O)[C@H](CNC(=O)C2COc3ccccc3O2)NC(=O)C2(CC2)CN1 (some centres unmarked) [X-Amcp-Dap-Cl-Trp + Acid 115]
12,-0.015,O=C1CCSSCCNC(=O)[C@@H](Cc2c[nH]c3ccccc23)NC(=O)[C@H](CNC(=O)C2CC2c2ccccc2)NC(=O)C2(CC2)CN1 (stereo partly drawn) [X-Amcp-Dap-D-Trp + Acid 105]
13,0.050,O=C1CCSSCCNC(=O)[C@@H](Cc2c[nH]c3ccccc23)NC(=O)[C@H](CNC(=O)c2ccc3ccccc3c2)NC(=O)C2(CC2)CN1 [X-Amcp-Dap-D-Trp + Acid 107]
14,0.008,O=C(/C=C/c1ccc(OCc2ccccc2)cc1)NC[C@@H]1NC(=O)C2(CC2)CNC(=O)CCSSCCNC(=O)[C@@H](Cc2c[nH]c3ccccc23)NC1=O [X-Amcp-Dap-D-Trp + Acid 110]
15,0.00133,O=C1CCSSCCNC(=O)[C@@H](Cc2c[nH]c3ccccc23)NC(=O)[C@H](CNC(=O)c2cccc(Oc3ccccc3)c2)NC(=O)C2(CC2)CN1 [X-Amcp-Dap-D-Trp + Acid 111]
16,0.015,O=C(/C=C/c1ccc2ccccc2c1)NC[C@@H]1NC(=O)C2(CC2)CNC(=O)CCSSCCNC(=O)[C@@H](Cc2c[nH]c3ccccc23)NC1=O [X-Amcp-Dap-D-Trp + Acid 112]

row,fraction of fluorescent probe displaced,Structure (SMILES)
1,0.035,O=C(CCS(=O)(=O)c1ccccc1)NC[C@@H]1NC(=O)C2(CC2)CNC(=O)CCSSCCNC(=O)[C@@H](Cc2c[nH]c3ccccc23)NC1=O [X-Amcp-Dap-D-Trp + Acid 114]
2,0.008,Cn1cc(C[C@@H]2NC(=O)[C@H](CNC(=O)c3ccc(Cl)s3)NC(=O)C3(CC3)CNC(=O)CCSSCCNC2=O)c2ccccc21 [X-Amcp-Dap-Me-Trp + Acid 14]
3,-0.021,Cn1cc(CC2NC(=O)C(CNC(=O)C3CC3c3ccccc3)NC(=O)C3(CC3)CNC(=O)CCSSCCNC2=O)c2ccccc21 (centres unmarked) [X-Amcp-Dap-Me-Trp + Acid 105]
4,0.008,Cn1cc(C[C@@H]2NC(=O)[C@H](CNC(=O)/C=C/c3ccc(Cl)cc3)NC(=O)C3(CC3)CNC(=O)CCSSCCNC2=O)c2ccccc21 [X-Amcp-Dap-Me-Trp + Acid 108]
5,0.008,Cn1cc(C[C@@H]2NC(=O)[C@H](CNC(=O)/C=C/c3ccc(OCc4ccccc4)cc3)NC(=O)C3(CC3)CNC(=O)CCSSCCNC2=O)c2ccccc21 [X-Amcp-Dap-Me-Trp + Acid 110]
6,0.028,Cn1cc(C[C@@H]2NC(=O)[C@H](CNC(=O)/C=C/c3ccc4ccccc4c3)NC(=O)C3(CC3)CNC(=O)CCSSCCNC2=O)c2ccccc21 [X-Amcp-Dap-Me-Trp + Acid 112]
7,0.041,Cn1cc(C[C@@H]2NC(=O)[C@H](CNC(=O)CCS(=O)(=O)c3ccccc3)NC(=O)C3(CC3)CNC(=O)CCSSCCNC2=O)c2ccccc21 [X-Amcp-Dap-Me-Trp + Acid 114]
8,0.015,Cn1cc(C[C@@H]2NC(=O)[C@H](CNC(=O)C3COc4ccccc4O3)NC(=O)C3(CC3)CNC(=O)CCSSCCNC2=O)c2ccccc21 (some centres unmarked) [X-Amcp-Dap-Me-Trp + Acid 115]
9,-0.025,CN1C(=O)[C@H](CNC(=O)c2ccc(Cl)s2)NC(=O)C2(CC2)CNC(=O)CCSSCCNC(=O)[C@@H]1Cc1c[nH]c2ccccc12 [X-Amcp-Dap-NMe-Trp + Acid 14]
10,0.00133,CN1C(=O)[C@H](CNC(=O)c2ccc(Cl)cc2)NC(=O)C2(CC2)CNC(=O)CCSSCCNC(=O)[C@@H]1Cc1c[nH]c2ccccc12 [X-Amcp-Dap-NMe-Trp + Acid 25]
11,0.015,CN1C(=O)[C@H](CNC(=O)/C=C/c2ccc(OCc3ccccc3)cc2)NC(=O)C2(CC2)CNC(=O)CCSSCCNC(=O)[C@@H]1Cc1c[nH]c2ccccc12 [X-Amcp-Dap-NMe-Trp + Acid 110]
12,-0.012,CN1C(=O)[C@H](CNC(=O)c2cccc(Oc3ccccc3)c2)NC(=O)C2(CC2)CNC(=O)CCSSCCNC(=O)[C@@H]1Cc1c[nH]c2ccccc12 [X-Amcp-Dap-NMe-Trp + Acid 111]
13,0.055,CN1C(=O)[C@H](CNC(=O)CCS(=O)(=O)c2ccccc2)NC(=O)C2(CC2)CNC(=O)CCSSCCNC(=O)[C@@H]1Cc1c[nH]c2ccccc12 [X-Amcp-Dap-NMe-Trp + Acid 114]
14,0.008,O=C1CCSSCCNC(=O)[C@H](Cc2c[nH]c3ccccc23)NC(=O)[C@H](CNC(=O)c2ccc(Cl)s2)NC(=O)C2(CC2)CN1 [X-Amcp-Dap-Trp + Acid 14]
15,0.048,O=C1CCSSCCNC(=O)[C@H](Cc2c[nH]c3ccccc23)NC(=O)[C@H](CNC(=O)c2ccc(Cl)cc2)NC(=O)C2(CC2)CN1 [X-Amcp-Dap-Trp + Acid 25]
16,0.063,O=C1CCSSCCNC(=O)[C@H](Cc2c[nH]c3ccccc23)NC(=O)[C@H](CNC(=O)c2ccc3ccccc3c2)NC(=O)C2(CC2)CN1 [X-Amcp-Dap-Trp + Acid 107]
